US20130011538A1, “CRYSTAL OF MULTIVALENT METAL SALT OF MONATIN” (Ajinomoto Co., Inc., priority 2011, published 2013)
Structures can show the parent of a compound that is named as a salt.

Legend:
[1] = Sweetness intensity evaluated by panelists in comparison with an aqueous solution of 5% sucrose; conditions: in comparison with the sweetness intensity of an aqueous solution of 5% sucrose; average of 7 panelists
Method: <Moisture content> 10.8 wt % (corresponding to the following equation: monatin:water=2:4) <Magnesium content> 3.6 wt % (corresponding to the following equation: monatin:magnesium=2:1)< <Characteristic X-ray diffraction peaks (2θ±0.2°, CuKα)> 8.9°, 11.2°, 15.0°, 17.8°, and 22.5° (FIG. 3)< <Crystalline form> The crystalline form in the deposited ML was a relatively small flake-like form (FIG. 4)< <Sweetness intensity> 2700 times higher (in comparison with the sweetness intensity of an aqueous solution of 5% sucrose, average of the sweetness intensities evaluated by 7 panelists)

[2] = Transmittance of monatin solution after storage (products containing sucrose); format: physicochemical; conditions: storage at 44° C. and 78%
Method: (§1) <Name of device> UV-visible spectrophotometer, Cary 50, manufactured by Varian Medical Systems, Inc. <Measurement wavelength>430 nm
(§2) <Sample> 1 g of sweetener composition is totally dissolved in 50 mL of water.
(§3) 1 g of each sweetener composition shown in the compositional table 2 was filled in a paper packaging material, and the packaging material was sealed with a heat seal. The composition was stored for a given period of time in a constant temperature and constant humidity device at 44° C. and 78%. Then, the total amount of the stored sample was dissolved in 50 mL of water, and the residual ratio of each monatin salt was calculated from the data obtained by HPLC analysis of the solution.

[3] = Transmittance of monatin solution after storage (products containing glucose); format: physicochemical; conditions: storage at 44° C. and 78%
Method: as §1, §2
as §3, with “1” for “2”

Change in color after storage [2] | Transmittance of the solution after storage (in words) [2] | Change in color after storage [3] | Transmittance of the solution after storage (in words) [3] | Structure (SMILES) | Sweetness intensity [1] [times]
– | – | – | – | NC(CC(O)(Cc1c[nH]c2ccccc12)C(=O)[O-])C(=O)O.NC(CC(O)(Cc1c[nH]c2ccccc12)C(=O)[O-])C(=O)O.O.O.O.O.[Mg+2] [Example 2, ((2R,4R)-monatin)2 magnesium salt tetrahydrate] | 2700
colored yellow | decreased | colored yellow | decreased | NC(CC(O)(Cc1c[nH]c2ccccc12)C(=O)O)C(=O)O [potassium salt, (2R,4R)-monatin monopotassium salt] | –
